The source made the active and inactive calls. The rule behind the calls is not given here.
Legend:
[1] = biological target: T1, Nuclear factor erythroid 2-related factor 2 (Homo sapiens) (UniProt Q16236); experiment: Activation of Nrf2 in human BEAS2B cells assessed as upregulation of NQO1 protein expression at 6.25 uM after 48 hrs by immunoblot analysis; format: cell-based
T1 sequence (whole entry): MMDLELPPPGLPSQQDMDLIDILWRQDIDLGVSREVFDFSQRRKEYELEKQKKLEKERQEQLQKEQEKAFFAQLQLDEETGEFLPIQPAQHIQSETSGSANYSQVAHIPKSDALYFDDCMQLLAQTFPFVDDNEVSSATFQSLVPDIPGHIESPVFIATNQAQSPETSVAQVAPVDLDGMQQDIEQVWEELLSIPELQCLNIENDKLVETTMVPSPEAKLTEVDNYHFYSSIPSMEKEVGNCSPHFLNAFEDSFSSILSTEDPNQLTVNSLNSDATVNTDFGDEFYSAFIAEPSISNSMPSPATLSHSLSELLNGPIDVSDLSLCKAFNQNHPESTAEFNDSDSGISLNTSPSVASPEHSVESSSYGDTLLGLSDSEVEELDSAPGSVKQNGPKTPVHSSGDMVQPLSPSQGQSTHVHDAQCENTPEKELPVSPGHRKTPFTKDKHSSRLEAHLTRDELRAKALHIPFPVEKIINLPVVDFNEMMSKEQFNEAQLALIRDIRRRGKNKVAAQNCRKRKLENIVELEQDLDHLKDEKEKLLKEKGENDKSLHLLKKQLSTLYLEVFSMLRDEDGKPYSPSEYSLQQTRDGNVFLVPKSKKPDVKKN

[2] = biological target: T1, Nuclear factor erythroid 2-related factor 2 (Homo sapiens); experiment: Activation of Nrf2 in human BEAS2B cells assessed as upregulation of gamma-GCS protein expression at 0.31 to 20 uM after 18 hrs by immunoblot analysis; format: cell-based
[3] = biological target: T1, Nuclear factor erythroid 2-related factor 2 (Homo sapiens); experiment: Activation of Nrf2 in human BEAS2B cells assessed as upregulation of GSH levels at 5 uM measured over 1 to 24 hrs; format: cell-based
[4] = biological target: T2, Nuclear factor erythroid 2-related factor 2 (Mus musculus) (UniProt Q60795); experiment: Activation of Nrf2 in mouse Heap1c1c7 cells assessed as induction of NAD(P)H:quinone reductase activity at 6.25 uM pretreated for 1 hr followed by co-treatment with MEK1/2 inhibitor PD98059 for 24 hrs; format: cell-based
T2 sequence (whole entry): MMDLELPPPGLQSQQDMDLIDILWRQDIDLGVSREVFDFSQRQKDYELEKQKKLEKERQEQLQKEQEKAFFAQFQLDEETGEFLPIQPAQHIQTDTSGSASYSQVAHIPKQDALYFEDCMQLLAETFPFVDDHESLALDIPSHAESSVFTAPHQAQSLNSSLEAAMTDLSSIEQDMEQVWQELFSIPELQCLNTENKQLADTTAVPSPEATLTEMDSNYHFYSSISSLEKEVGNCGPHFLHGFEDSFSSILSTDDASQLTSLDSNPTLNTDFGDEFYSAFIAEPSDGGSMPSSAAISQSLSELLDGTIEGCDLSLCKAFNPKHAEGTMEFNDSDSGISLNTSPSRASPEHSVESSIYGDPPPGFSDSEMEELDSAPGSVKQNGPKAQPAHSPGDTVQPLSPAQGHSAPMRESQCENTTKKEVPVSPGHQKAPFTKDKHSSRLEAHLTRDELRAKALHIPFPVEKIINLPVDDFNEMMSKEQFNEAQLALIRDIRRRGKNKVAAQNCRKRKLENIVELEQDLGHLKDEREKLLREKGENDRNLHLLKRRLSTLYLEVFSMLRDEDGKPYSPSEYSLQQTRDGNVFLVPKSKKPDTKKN

[5] = biological target: T1, Nuclear factor erythroid 2-related factor 2 (Homo sapiens); experiment: Induction of Nrf2 translocation from cytoplasm to nucleus in human BEAS2B cells at 6.25 uM after 18 hrs by immunoblot analysis; format: cell-based
[6] = biological target: T1, Nuclear factor erythroid 2-related factor 2 (Homo sapiens); experiment: Activation of Nrf2 in human BEAS2B cells assessed as upregulation of Nrf2 protein expression at 6.25 uM pretreated for 1 hr followed by co-treatment with PKC inhibitor Ro-31-8220 for 18 hrs by immunoblot analysis; format: cell-based
[7] = biological target: T2, Nuclear factor erythroid 2-related factor 2 (Mus musculus); experiment: Activation of Nrf2 in mouse Heap1c1c7 cells assessed as induction of NAD(P)H:quinone reductase activity at 6.25 uM pretreated for 1 hr followed by co-treatment with MEK1/2 inhibitor Uo126 for 24 hrs; format: cell-based
[8] = biological target: T1, Nuclear factor erythroid 2-related factor 2 (Homo sapiens); experiment: Activation of Nrf2 in human BEAS2B cells assessed as upregulation of gamma-GCS protein expression at 50 to 100 uM after 18 hrs by immunoblot analysis; format: cell-based
[9] = biological target: T1, Nuclear factor erythroid 2-related factor 2 (Homo sapiens); experiment: Activation of Nrf2 in human BEAS2B cells assessed as upregulation of gamma-GCS protein expression at 3.12 to 25 uM after 12 hrs by immunoblot analysis; format: cell-based
[10] = biological target: T2, Nuclear factor erythroid 2-related factor 2 (Mus musculus); experiment: Activation of Nrf2 in mouse Heap1c1c7 cells assessed as induction of NAD(P)H:quinone reductase activity at 6.25 uM pretreated for 1 hr followed by co-treatment with PKC inhibitor Ro-31-8220 for 24 hrs; format: cell-based
[11] = biological target: T1, Nuclear factor erythroid 2-related factor 2 (Homo sapiens); experiment: Activation of Nrf2 in human BEAS2B cells assessed as upregulation of GSH levels after 24 hrs; format: cell-based
BEAS-2B = experiment: Effect on Keap1 protein levels in human BEAS2B cells at 6.25 uM after 4 to 48 hrs by immunoblot analysis; format: functional, cell-based
[12] = biological target: T1, Nuclear factor erythroid 2-related factor 2 (Homo sapiens); experiment: Activation of Nrf2 in human BEAS2B cells assessed as upregulation of Nrf2 protein expression at 6.25 uM pretreated for 1 hr followed by co-treatment with PKC inhibitor Go6983 for 18 hrs by immunoblot analysis; format: cell-based
[13] = biological target: T1, Nuclear factor erythroid 2-related factor 2 (Homo sapiens); experiment: Activation of Nrf2 in human MDA-MB-231 cells assessed as upregulation of gamma-GCS protein expression after 16 hrs by immunoblot analysis; format: cell-based
[14] = biological target: T1, Nuclear factor erythroid 2-related factor 2 (Homo sapiens); experiment: Activation of Nrf2 in human BEAS2B cells assessed as upregulation of Nrf2 protein expression at 6.25 uM pretreated for 1 hr followed by co-treatment with MEK1/2 inhibitor PD98059 for 18 hrs by immunoblot analysis; format: cell-based
[15] = biological target: T1, Nuclear factor erythroid 2-related factor 2 (Homo sapiens); experiment: Activation of Nrf2 in human BEAS2B cells assessed as upregulation of Nrf2 protein expression at 6.25 uM pretreated for 1 hr followed by co-treatment with p38 MAPK inhibitor SB203580 for 18 hrs by immunoblot analysis; format: cell-based

Activity [1]: inactive
Activity [2]: Dose-dependent effect
Activity [3]: Active
Activity [4]: inactive
Activity [5]: Active
Activity [6]: inactive
Activity [7]: Active
Activity [8]: inactive
Activity [9]: Active
Activity [10]: inactive
Activity [11]: Dose-dependent effect
Activity [12]: inactive
Activity [13]: Dose-dependent effect
Activity [14]: inactive
Activity [15]: inactive
SMILES: COc1ccc(-c2coc3cc(OC)cc(O)c3c2=O)cc1 [4',7-DIMETHOXY-5-HYDROXYGENISTEIN]
Activity (BEAS-2B): inactive

Source: ChEMBL document CHEMBL4229568, “Discovery of natural flavonoids as activators of Nrf2-mediated defense system: Structure-activity relationship and inhibition of intracellular oxidative insults” (Bioorg Med Chem, 2018)
